In one assay the test system is NF-κB. Put plainly: NF-κB Luc reporter gene in FRTL-5 thyrocytes. In kind it is cell-based, rat. The settings on record: for NF-κB Luc Relative Luciferase Activity % of Control (±15%), +C10: 6 hours. As to the method:
Poly (I:C) (the dsRNA ligand commonly used as a test compound) activates the TLR3 mediated NF-κ β/Map kinase signal pathway in FRTL-5 thyrocytes. FRTL-5 cells were transiently transfected with 100 ng of luciferase reporter pNF-κB Luc and 2 ng of internal control phRL-Tk. After 36 h, cells were incubated with 100 μg/ml poly (I:C) or endotoxin-free E. coli DNA for 6 h. Measurements were made with the Dual Luciferase Assay System (Promega). Poly (I:C) increased TLR3 mediated NF-κB mediated luciferase activity (gene expression) 6 fold; dsDNA had no effect. Further support came from electrophoretic mobility shift analyses (EMSA). When FRTL-5 thyrocytes were incubated with 100 μg/ml poly (I:C), IL-1β, TNF-α or TPA, cells lysed after 1 h, and nuclear translocation of NF-κB measured. The poly (I:C) induced p50/p65 complex formation as measured by the presence of a specific new protein/DNA complex and its inhibition by anti-p50 and p65 antibodies, but not by anti-p52, c-rel and Rel B antibodies; the complex was also supershifted by anti-p50. […] Additionally, when FRTL-5 cells were co-transfected with pCMV-BD-Elk 1 and pFR-luc, then incubated with 100 μg/ml poly (I:C) or IL-1β for 6 hrs, ELK1 transactivation was increased 2-fold by both Poly (I:C) and IL-1β when measured with the Dual Luciferase Assay System (Promega). NF-κB/MAP Kinase signals evoked by TLR3 binding dsRNA are only one portion of TLR3 functional expression.
Cells were co-transfected with ISRE-Luc and pRLTk-Int and then treated without (none) or with Poly I:C (100 μg/ml), LPS (100 ng/ml), IL-1β (10 ng/ml) TNF-α (25 ng/ml), IFN-β (100 U/ml) or IFN-γ (1000 U/ml) in the presence of DMSO (−) or C10 for 6 hours. Data were obtained using the Dual Luciferase Assay system. The effect on the ISRE element is not duplicated by an NF-κB reporter plasmid despite the similarity of the two elements: ([…])5 (SEQ ID NO:3) vs. ([…])5 (SEQ ID NO:4), respectively. Data are representative of multiple experiments.
Plasmids for Reporter Gene Assays. Human IRF-3 was amplified from human cDNA and cloned into pCR 2.1 by the TOPO/TA (Invitrogen, Carlsbad, Calif.) cloning method, and then sequenced. IRF-3 was then excised by EcoRI digestion and subcloned into pCMV-BD (Stratagene, La Jolla, Calif.) for use in transactivation assays. To construct IFN-β-luc the human IFN-β promoter sequence was amplified from human genomic DNA (Clontech, Palo Alto, Calif.)) using Ex Taq™ Polymerase (Takara, Madison, Wis.). The PCR fragment contained human IFN-β promoter sequence from −125 to +34 relative to the transcription start site (+1) and incorporated KpnI and XhoI restriction sites at the 5′ and 3′ ends, respectively. The primers were as follows: hIFN-β (−125) KpnI (5′-[…]-3′) (SEQ ID NO:9) and hIFN-β (+34) XhoI (5′-[…]-3′). (SEQ ID NO: 10) The fragment was digested with KpnI and XhoI then ligated into a similarly digested pGL3 Basic (Promega, Madison, Wis.) vector. The human MyD88 wild and dominant negative expression vectors were kindly donated by Dr. P. E. Auron. pFR-luc (5×Gal4 DNA binding domains and minimal TATA box), ISRE-Luc, NF-κB-luc and the Elk1 trans-Reporting System were purchased from Stratagene. pRL TK-Int was purchased from Promega.
Transient Expression Analysis. A DEAE procedure was used to transfect promoter-luciferase gene constructs and expression plasmids into FRTL-5 cells. Briefly, FRTL-5 cells were grown in 24-well plates to about 70% confluence, washed with 0.5 ml of serum-free culture medium (6H0 medium), then exposed to 125 μl of premade plasmid-DEAE mixture per well for 15 min at room temperature. The plasmid-DEAE mixture was prepared by incubating 100 ng of plasmid DNA, unless otherwise noted in individual experiments, with 3.125 μl of DEAE-Dextran (10 mg/ml) (Promega, Madison Wis.). FRTL-5 cells were incubated with this mixture for 2 hr at 37° C. in a CO2 incubator, before 2 ml of 6H5 medium was added. […]

In the next assay the test system is TLR4 signaled genes. Description: Gene expression in organs of LPS-treated mice (Northern, RT-PCR). The format is in vivo, mouse.
For the next assay, the system named is Stat1. Description: LPS-induced Stat1 phosphorylation in RAW 264.7 macrophages (immunoblot). In kind it is cell-based, mouse.

Molecules are shown by their SMILES.

Take `Cn1c(-c2ccccc2)cnc1S` [Compound C10, 5-Phenylmethimazole]: the “NF-κB Luc Relative Luciferase Activity % of Control (±15%), +C10” value in the assay on NF-κB (FRTL-5, Ligand IFN-β 100 U/ml) is reported as 150 % of Control; in the assay on NF-κB (FRTL-5, Ligand IFN-γ 1000 U/ml) it was 180 % of Control; in the assay on NF-κB (FRTL-5, Ligand IL-1β 10 ng/ml), 350 % of Control; in the assay with NF-κB (FRTL-5, Ligand LPS 100 ng/ml), 250 % of Control; in the assay on NF-κB (FRTL-5, Ligand None) it was 100 % of Control; with NF-κB (FRTL-5, Ligand Poly (I:C) 100 μg/ml) it was 300 % of Control. The “NF-κB Luc Relative Luciferase Activity % of Control (±15%), +C10” value with NF-κB (FRTL-5, Ligand TNF-α 25 ng/ml) is on record as 225 % of Control. The “effect on Poly (I:C)-increased NF-κB-luciferase activity” value in the assay on NF-κB (FRTL-5, 0.5 mM C10 or 5 mM MMI) is “minimal effect”. Moreover, the “pro-inflammatory cytokine gene expression (TNF α, IL-1β, IL-6, IL-12, IFN γ) in spleen, liver, lung, kidney, heart” value in the assay on TLR4 signaled genes (LPS injected mice at 24 hours, Northern) is reported as “suppressed”. In addition, the “LPS-induced over-expression of IRF-1, IP-10 and MCP-1 RNA in organs” value with TLR4 signaled genes (LPS-treated mice of Table 5, Northern) is listed as “suppressed”. For the same compound, in the assay with TLR4 signaled genes (kidney, liver and lung, RT-PCR), the “LPS-elevated COX-2 RNA levels” value is “completely suppressed and returned to normal”. In the assay on TLR4 signaled genes (organs of LPS treated mice, RT-PCR), the “LPS-down-regulated COX-1 RNA levels” value was “returned RNA levels to the normal levels”. For the same compound, the “LPS-increased iNOS RNA levels” value in the assay with TLR4 signaled genes (spleen, liver, lung, kidney, heart, RT-PCR) is given as “suppressed”. In addition, the “LPS induced Stat1 phosphorylation in cytoplasmic and nuclear fractions” value with Stat1 (RAW 264.7) was “reduce”. The “Stat1 serine phosphorylation at residue 727” value in the assay on Stat1 (RAW 264.7, LPS 500 ng/mL 3 hours, 0.5 mM C10) is “reduce”.

The record behind these values is patent publication US9326972B2, “Use of phenylmethimazoles, methimazole derivatives, and tautomeric cyclic thiones for the treatment of autoimmune/inflammatory diseases associated with toll-like receptor overexpression” (Ohio University, priority 2004, dated 2016).
